Data as given in ChEMBL document CHEMBL2380191, “Novel racemic tetrahydrocurcuminoid dihydropyrimidinone analogues as potent acetylcholinesterase inhibitors” (Bioorg Med Chem Lett, 2013).

Target: Acetylcholinesterase (Electrophorus electricus, UniProt O42275)
Experiment: Inhibition of electric eel AChE using acetylthiocholine iodide as substrate after 15 mins by Ellman's method

Acetylcholinesterase, sequence (O42275 whole entry): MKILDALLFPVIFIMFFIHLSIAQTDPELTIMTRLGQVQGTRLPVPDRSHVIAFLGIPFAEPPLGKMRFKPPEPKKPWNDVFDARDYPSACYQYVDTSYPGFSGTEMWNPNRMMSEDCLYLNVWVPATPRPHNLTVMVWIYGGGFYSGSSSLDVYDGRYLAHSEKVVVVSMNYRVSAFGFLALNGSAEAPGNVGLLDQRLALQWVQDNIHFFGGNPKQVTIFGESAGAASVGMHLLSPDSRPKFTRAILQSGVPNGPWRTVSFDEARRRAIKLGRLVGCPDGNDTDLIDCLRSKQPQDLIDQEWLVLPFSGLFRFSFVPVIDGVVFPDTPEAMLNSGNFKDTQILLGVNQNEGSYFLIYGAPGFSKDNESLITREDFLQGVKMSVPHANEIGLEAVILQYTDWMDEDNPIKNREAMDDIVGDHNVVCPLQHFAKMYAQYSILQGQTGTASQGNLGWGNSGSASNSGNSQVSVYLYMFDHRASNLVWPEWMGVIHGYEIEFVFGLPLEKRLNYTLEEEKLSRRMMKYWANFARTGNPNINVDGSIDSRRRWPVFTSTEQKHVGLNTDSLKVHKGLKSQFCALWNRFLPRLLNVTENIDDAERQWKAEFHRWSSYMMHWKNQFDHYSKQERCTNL

Structure (SMILES) | IC50
O=C(/C=C/c1ccc(O)cc1)CC(=O)/C=C/c1ccc(O)cc1 [BISDEMETHOXYCURCUMIN] | 18.3 µM
COc1cc(/C=C/C(O)=C/C(=O)/C=C/c2ccc(O)cc2)ccc1O [DEMETHOXYCURCUMIN] | 37.7 µM
COc1ccc(C2NC(=O)NC(CCc3ccc(O)c(OC)c3)=C2C(=O)CCc2ccc(O)c(OC)c2)cc1 (racemic) | 14.3 µM
O=C(CCc1ccc(O)cc1)CC(=O)CCc1ccc(O)cc1 [LETESTUIANIN C] | 7.89 µM
COc1cc(CCC(=O)C2=C(CCc3ccc(O)c(OC)c3)NC(=O)NC2c2ccc(O)c(OC)c2)ccc1O (racemic) | 56.4 µM
COc1cc(CCC(=O)C2=C(CCc3ccc(O)cc3)NC(=O)NC2c2ccccc2)ccc1O (racemic) | 10.7 µM
COc1cc(CCC2=C(C(=O)CCc3ccc(O)cc3)C(c3ccccc3)NC(=O)N2)ccc1O (racemic) | 20.9 µM
COc1ccc(C2NC(=O)NC(CCc3ccc(O)cc3)=C2C(=O)CCc2ccc(O)cc2)cc1 (racemic) | 1.34 µM
COc1cc(CCC(=O)C2=C(CCc3ccc(O)c(OC)c3)NC(=O)NC2c2ccccc2)ccc1O (racemic) | 36.3 µM
COc1ccc(C2NC(=O)NC(CCc3ccc(O)c(OC)c3)=C2C(=O)CCc2ccc(O)cc2)cc1 (racemic) | 9.1 µM
COc1cc(CCC(=O)CC(=O)CCc2ccc(O)c(OC)c2)ccc1O [TETRAHYDROCURCUMIN] | 41.2 µM
COc1cc(CCC(=O)CC(=O)CCc2ccc(O)cc2)ccc1O [TETRAHYDRODEMETHOXYCURCUMIN] | 20.6 µM
O=C1NC(CCc2ccc(O)cc2)=C(C(=O)CCc2ccc(O)cc2)C(c2ccccc2)N1 (racemic) | 2.04 µM
COc1ccc(C2NC(=O)NC(CCc3ccc(O)cc3)=C2C(=O)CCc2ccc(O)c(OC)c2)cc1 (racemic) | 5.78 µM
COc1cc(CCC(=O)C2=C(CCc3ccc(O)c(OC)c3)NC(=O)NC2c2ccc(O)cc2)ccc1O (racemic) | 17.3 µM
